Source: patent US20080214623A1, “N-(2,2-Dimethylpropyl)-6- -3-Pyridinecarboxamide” (priority 2005, published 2008)

Key:
Recombinant human p38α = target: T1, Recombinant human p38α (Homo sapiens, UniProt Q16539); test: Fluorescence anisotropy kinase binding assay; conditions: 12 nM p38α, 5 nM fluorescent ligand
T1 construct: GST; made in house
Experimental: Assay 1: Fluorescence Anisotropy Kinase Binding Assay
The concentration of kinase enzyme should preferably be 2×Kf. The concentration of fluorescent ligand required will depend on the instrumentation used, and the fluorescent and physicochemical properties. The concentration used must be lower than the concentration of kinase enzyme, and preferably less than half the kinase enzyme concentration.
Recombinant human p38α was expressed as a GST-tagged protein. To activate this protein, 3.5 μM unactivated p38α was incubated in 50 mM Tris-HCl pH 7.5, 0.1 mM EGTA, 0.1% 2-mercaptoethanol, 0.1 mM sodium vanadate, 10 mM MgAc, 0.1 mM ATP with 200 nM MBP-MKK6 DD at 30 degrees for 30 mins. Following activation p38α was re-purified and the activity assessed using a standard filter-binding assay.
All components are dissolved in buffer of composition 62.5 mM HEPES, pH 7.5, 1.25 mM CHAPS, 1 mM DTT, 12.5 mM MgCl2 with final concentrations of 12 nM p38α and 5 nM fluorescent ligand. 30 μl of this reaction mixture is added to wells containing 1 μl of various concentrations of test compound (0.28 nM-16.6 μM final) or DMSO vehicle (3% final) in NUNC 384 well black microtitre plate and equilibrated for 30-60 mins at room temperature. Fluorescence anisotropy is read in Molecular Devices Acquest (excitation 485 nm/emission 535 nm).
Definitions: Ki=dissociation constant for inhibitor binding […]

[1] = system: TNFα production in LPS-stimulated leukocytes (human whole blood); test: TNFα production in human whole blood (LPS-stimulated); format: cell-based; conditions: Leukocyte, 1 hr preincubation, LPS 50 ng/ml, 20 hours
Text: Assay 2: TNFα Production in Human Whole Blood
p38 Mitogen-activated protein (MAP) kinase (p38) regulates the biosynthesis of pro-inflammatory cytokines such as TNFα. The potency as an inhibitor of cytokine production can thus be assessed by measuring the effects on TNFα production in LPS-stimulated leukocytes. Carrying the assay out on whole blood rather than isolated leukocytes gives a measure of whole cell potency of the compound in the presence of plasma protein and cells, particularly red blood cells that in vivo are likely to lower circulating free drug concentrations. […] The concentrations of TNF in the original whole blood assay supernatants can then be determined from a standard curve generated using authentic human TNFα.
Heparinised blood drawn from normal volunteers was dispensed (100 μl) into microtitre plate wells containing 0.5 or 1.0 μl of an appropriately diluted compound solution. […] Plasma TNFα content was determined by electrochemiluminescence assay using the IGEN technology. […]
TNF assay plates (MSD: cat L41IB-1) were blocked overnight with 20 μl human serum cytokine diluent (MSD). […] 150 μl 2× read buffer T (MSD Cat R92TC-1) was added to the whole blood plates and 90 μl 2.5× read buffer P (MSD Cat R92PC-1) to the PBMC plates and all plates read in the MSD Sector Imager 6000 electrochemiluminescence reader.

T1 sequence (Q16539 whole entry): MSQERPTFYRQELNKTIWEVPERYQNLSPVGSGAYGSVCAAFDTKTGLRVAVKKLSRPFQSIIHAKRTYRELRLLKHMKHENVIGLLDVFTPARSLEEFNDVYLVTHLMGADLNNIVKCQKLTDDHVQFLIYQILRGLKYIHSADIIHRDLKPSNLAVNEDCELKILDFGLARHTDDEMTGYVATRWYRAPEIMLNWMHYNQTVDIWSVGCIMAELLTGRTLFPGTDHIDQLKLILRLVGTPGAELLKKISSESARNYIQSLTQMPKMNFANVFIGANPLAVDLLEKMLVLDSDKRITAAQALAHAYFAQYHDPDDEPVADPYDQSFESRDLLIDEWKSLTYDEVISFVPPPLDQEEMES

IC50 (Recombinant human p38α): < 50 nM | IC50 [1]: < 50 nM
SMILES: Cc1c(F)cc(C(=O)Nc2ccon2)cc1-c1ccc(C(=O)NCC(C)(C)C)cn1 [Example 1]
